In patent US10106538B2, “Inhibitors of protein kinases” (PRINCETON DRUG DISCOVERY INC, priority 2015, dated 2018):

What was measured:
Assay in all cases: Off-chip Mobility Shift Assay (MSA) kinase inhibition
Assay type in all cases: biochemical
BLK = biological target: T1, BLK (Homo sapiens, UniProt P51451)
T1 construct: purchased Carna Biosciences
Procedure, shortened: (§1)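 Read-out: product/substrate peptide peak heights by off-chip mobility shift, expressed as P/(P+S). Reactions ran 1 or 5 h at room temperature in HEPES pH 7.5 buffer with Triton X100 and DTT. Percent inhibition referenced to full reaction (0%) and no-enzyme background (100%).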

DDR1 = biological target: T2, DDR1 (Homo sapiens, UniProt Q08345)
T2 construct: purchased Carna Biosciences
Procedure, shortened: as §1

EPHA5 = biological target: T3, EPHA5 (Homo sapiens, UniProt P54756); conditions: inhibitor concentration 1 μM
T3 construct: purchased Carna Biosciences
Procedure, shortened: as §1

FGFR1 = biological target: T4, FGFR1 (Homo sapiens, UniProt P11362); conditions: inhibitor concentration 1 μM
T4 construct: purchased Carna Biosciences
Procedure, shortened: as §1

FLT1 = biological target: T5, FLT1 (Homo sapiens, UniProt P17948); conditions: inhibitor concentration 1 μM
T5 construct: purchased Carna Biosciences
Procedure, shortened: as §1

FLT4 = biological target: T6, FLT4 (Homo sapiens, UniProt P35916); conditions: inhibitor concentration 1 μM
T6 construct: purchased Carna Biosciences
Procedure, shortened: as §1

FYN(isoform b) = biological target: T7, FYN(isoform b) (Homo sapiens, UniProt P06241)
T7 construct: purchased Carna Biosciences
Procedure, shortened: as §1

KIT(D816E) = biological target: T8, KIT(D816E) (Homo sapiens, UniProt P10721, D816E); conditions: inhibitor concentration 1 μM
T8 construct: purchased Carna Biosciences
Procedure, shortened: as §1

KIT(V654A) = biological target: T9, KIT(V654A) (Homo sapiens, UniProt P10721, V654A); conditions: inhibitor concentration 1 μM
T9 construct: purchased Carna Biosciences
Procedure, shortened: as §1

MAP2K3 = biological target: T10, MAP2K3 (Homo sapiens, UniProt P46734); conditions: inhibitor concentration 1 μM
T10 construct: purchased Carna Biosciences
Procedure, shortened: as §1

MAP2K6 = biological target: T11, MAP2K6 (Homo sapiens, UniProt P52564); conditions: inhibitor concentration 1 μM
T11 construct: purchased Carna Biosciences
Procedure, shortened: as §1

MAP2K7 = biological target: T12, MAP2K7 (Homo sapiens, UniProt O14733); conditions: inhibitor concentration 1 μM
T12 construct: purchased Carna Biosciences
Procedure, shortened: as §1

MST2 = biological target: T13, MST2 (Homo sapiens, UniProt Q13188)
T13 construct: purchased Carna Biosciences
T13 sequence (Q13188 1-491): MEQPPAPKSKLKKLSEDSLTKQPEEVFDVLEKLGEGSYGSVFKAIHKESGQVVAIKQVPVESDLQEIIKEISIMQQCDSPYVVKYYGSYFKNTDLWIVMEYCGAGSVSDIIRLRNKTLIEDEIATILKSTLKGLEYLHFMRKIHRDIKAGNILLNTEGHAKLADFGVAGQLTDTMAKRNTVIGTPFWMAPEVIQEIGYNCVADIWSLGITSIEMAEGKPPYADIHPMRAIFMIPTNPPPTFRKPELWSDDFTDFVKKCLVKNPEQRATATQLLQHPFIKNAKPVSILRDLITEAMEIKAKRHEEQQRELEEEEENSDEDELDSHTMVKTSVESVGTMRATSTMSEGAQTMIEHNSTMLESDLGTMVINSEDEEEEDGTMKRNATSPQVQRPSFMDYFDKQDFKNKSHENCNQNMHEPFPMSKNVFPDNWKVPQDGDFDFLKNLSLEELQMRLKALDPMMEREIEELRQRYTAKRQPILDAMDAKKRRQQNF
Procedure, shortened: as §1

MST3 = biological target: T14, MST3 (Homo sapiens, UniProt Q9Y6E0); conditions: inhibitor concentration 1 μM
T14 construct: purchased Carna Biosciences
Procedure, shortened: as §1

PKD3 = biological target: T15, PKD3 (Homo sapiens, UniProt O94806); conditions: inhibitor concentration 1 μM
T15 construct: purchased Carna Biosciences
Procedure, shortened: as §1

RET(G691S) = biological target: T16, RET(G691S) (Homo sapiens, UniProt P07949, G691S)
T16 construct: purchased Carna Biosciences
Procedure, shortened: as §1

WNK3 = biological target: T17, WNK3 (Homo sapiens, UniProt Q9BYP7); conditions: inhibitor concentration 1 μM
T17 construct: purchased Carna Biosciences
Procedure, shortened: as §1

p38β = biological target: T18, p38β (Homo sapiens, UniProt Q15759); conditions: inhibitor concentration 1 μM
T18 construct: purchased Carna Biosciences
Procedure, shortened: as §1

skMLCK = biological target: T19, skMLCK (Homo sapiens, UniProt Q9H1R3); conditions: inhibitor concentration 1 μM
T19 construct: purchased Carna Biosciences
Procedure, shortened: as §1

[1] = inhibitor concentration 0.01 μM

T1 sequence (P51451 whole entry): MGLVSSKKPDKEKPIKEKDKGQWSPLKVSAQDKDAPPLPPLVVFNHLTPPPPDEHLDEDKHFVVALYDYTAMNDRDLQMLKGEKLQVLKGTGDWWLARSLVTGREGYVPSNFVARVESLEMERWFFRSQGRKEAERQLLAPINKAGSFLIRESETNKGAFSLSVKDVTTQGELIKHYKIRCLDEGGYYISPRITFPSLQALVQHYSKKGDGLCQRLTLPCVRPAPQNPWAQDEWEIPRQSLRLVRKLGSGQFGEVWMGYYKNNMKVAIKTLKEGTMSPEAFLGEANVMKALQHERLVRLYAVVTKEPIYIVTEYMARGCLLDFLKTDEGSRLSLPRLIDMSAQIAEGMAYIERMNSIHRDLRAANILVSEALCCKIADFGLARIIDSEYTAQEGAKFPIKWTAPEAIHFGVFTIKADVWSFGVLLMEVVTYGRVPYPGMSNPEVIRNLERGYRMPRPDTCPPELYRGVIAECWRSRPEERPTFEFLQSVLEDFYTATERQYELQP
T7 sequence (P06241 1-534 isoform P06241-2): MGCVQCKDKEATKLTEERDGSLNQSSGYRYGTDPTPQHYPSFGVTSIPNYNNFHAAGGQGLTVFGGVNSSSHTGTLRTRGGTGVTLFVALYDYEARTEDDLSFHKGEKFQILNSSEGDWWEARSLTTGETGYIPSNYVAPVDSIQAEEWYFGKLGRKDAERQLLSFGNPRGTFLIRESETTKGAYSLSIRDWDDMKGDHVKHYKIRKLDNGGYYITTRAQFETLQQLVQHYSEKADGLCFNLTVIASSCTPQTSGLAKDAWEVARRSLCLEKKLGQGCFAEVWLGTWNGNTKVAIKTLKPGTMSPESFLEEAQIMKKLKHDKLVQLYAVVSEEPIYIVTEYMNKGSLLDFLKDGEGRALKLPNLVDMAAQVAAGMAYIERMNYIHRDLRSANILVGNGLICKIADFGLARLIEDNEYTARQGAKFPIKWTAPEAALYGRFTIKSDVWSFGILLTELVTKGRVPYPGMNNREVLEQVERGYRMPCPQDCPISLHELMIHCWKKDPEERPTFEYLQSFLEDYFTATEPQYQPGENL
T16 sequence (P07949 29-1114 G691S): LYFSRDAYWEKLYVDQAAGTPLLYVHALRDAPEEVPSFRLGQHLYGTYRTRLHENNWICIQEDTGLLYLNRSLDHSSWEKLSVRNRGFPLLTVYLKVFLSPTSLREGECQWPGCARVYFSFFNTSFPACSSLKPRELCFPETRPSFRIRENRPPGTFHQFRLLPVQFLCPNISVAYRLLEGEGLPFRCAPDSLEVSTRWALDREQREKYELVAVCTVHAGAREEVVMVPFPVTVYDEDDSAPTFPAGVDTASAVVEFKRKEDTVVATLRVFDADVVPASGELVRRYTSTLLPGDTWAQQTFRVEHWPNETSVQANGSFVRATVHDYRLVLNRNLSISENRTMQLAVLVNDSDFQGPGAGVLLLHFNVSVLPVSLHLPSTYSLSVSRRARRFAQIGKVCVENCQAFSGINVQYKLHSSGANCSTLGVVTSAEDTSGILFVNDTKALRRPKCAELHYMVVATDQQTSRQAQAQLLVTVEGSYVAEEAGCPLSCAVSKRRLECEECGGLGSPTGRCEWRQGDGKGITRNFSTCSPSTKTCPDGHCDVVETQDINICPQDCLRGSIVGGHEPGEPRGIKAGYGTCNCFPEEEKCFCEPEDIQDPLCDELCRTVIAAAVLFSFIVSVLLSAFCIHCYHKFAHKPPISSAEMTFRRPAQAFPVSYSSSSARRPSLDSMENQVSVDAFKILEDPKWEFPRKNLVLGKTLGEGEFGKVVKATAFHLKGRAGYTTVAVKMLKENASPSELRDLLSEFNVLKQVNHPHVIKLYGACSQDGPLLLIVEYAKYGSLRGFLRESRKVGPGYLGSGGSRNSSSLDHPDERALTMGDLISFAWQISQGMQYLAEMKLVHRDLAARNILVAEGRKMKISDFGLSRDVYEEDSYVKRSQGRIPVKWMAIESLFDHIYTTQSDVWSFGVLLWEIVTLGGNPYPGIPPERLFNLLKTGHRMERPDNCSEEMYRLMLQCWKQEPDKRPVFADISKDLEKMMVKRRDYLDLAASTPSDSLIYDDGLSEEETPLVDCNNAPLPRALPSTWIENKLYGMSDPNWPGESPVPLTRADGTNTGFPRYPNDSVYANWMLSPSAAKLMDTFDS
T2 sequence (Q08345 19-913): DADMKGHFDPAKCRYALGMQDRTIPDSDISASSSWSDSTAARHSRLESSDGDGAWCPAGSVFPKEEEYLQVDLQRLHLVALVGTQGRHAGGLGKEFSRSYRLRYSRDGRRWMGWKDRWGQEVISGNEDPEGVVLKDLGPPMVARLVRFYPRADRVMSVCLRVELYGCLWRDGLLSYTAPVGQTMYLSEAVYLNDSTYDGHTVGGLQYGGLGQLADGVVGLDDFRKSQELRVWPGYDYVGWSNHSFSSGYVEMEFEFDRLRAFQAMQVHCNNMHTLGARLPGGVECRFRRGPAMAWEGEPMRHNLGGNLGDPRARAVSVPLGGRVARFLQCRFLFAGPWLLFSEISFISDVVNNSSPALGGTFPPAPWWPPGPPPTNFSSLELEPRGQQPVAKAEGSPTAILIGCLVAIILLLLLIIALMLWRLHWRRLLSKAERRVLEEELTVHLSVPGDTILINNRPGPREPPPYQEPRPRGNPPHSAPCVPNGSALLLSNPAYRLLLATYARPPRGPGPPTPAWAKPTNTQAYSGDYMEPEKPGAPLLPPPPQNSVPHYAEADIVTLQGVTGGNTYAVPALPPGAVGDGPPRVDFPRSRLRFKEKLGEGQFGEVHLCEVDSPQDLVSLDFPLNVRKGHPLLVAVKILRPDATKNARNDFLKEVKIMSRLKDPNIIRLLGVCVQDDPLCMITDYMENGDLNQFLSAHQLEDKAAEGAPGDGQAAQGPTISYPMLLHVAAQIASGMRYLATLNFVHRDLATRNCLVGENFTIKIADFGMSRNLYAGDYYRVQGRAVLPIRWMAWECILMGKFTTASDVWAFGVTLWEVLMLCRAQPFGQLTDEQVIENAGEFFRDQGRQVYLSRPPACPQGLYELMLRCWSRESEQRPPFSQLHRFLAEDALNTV
T17 sequence (Q9BYP7 whole entry): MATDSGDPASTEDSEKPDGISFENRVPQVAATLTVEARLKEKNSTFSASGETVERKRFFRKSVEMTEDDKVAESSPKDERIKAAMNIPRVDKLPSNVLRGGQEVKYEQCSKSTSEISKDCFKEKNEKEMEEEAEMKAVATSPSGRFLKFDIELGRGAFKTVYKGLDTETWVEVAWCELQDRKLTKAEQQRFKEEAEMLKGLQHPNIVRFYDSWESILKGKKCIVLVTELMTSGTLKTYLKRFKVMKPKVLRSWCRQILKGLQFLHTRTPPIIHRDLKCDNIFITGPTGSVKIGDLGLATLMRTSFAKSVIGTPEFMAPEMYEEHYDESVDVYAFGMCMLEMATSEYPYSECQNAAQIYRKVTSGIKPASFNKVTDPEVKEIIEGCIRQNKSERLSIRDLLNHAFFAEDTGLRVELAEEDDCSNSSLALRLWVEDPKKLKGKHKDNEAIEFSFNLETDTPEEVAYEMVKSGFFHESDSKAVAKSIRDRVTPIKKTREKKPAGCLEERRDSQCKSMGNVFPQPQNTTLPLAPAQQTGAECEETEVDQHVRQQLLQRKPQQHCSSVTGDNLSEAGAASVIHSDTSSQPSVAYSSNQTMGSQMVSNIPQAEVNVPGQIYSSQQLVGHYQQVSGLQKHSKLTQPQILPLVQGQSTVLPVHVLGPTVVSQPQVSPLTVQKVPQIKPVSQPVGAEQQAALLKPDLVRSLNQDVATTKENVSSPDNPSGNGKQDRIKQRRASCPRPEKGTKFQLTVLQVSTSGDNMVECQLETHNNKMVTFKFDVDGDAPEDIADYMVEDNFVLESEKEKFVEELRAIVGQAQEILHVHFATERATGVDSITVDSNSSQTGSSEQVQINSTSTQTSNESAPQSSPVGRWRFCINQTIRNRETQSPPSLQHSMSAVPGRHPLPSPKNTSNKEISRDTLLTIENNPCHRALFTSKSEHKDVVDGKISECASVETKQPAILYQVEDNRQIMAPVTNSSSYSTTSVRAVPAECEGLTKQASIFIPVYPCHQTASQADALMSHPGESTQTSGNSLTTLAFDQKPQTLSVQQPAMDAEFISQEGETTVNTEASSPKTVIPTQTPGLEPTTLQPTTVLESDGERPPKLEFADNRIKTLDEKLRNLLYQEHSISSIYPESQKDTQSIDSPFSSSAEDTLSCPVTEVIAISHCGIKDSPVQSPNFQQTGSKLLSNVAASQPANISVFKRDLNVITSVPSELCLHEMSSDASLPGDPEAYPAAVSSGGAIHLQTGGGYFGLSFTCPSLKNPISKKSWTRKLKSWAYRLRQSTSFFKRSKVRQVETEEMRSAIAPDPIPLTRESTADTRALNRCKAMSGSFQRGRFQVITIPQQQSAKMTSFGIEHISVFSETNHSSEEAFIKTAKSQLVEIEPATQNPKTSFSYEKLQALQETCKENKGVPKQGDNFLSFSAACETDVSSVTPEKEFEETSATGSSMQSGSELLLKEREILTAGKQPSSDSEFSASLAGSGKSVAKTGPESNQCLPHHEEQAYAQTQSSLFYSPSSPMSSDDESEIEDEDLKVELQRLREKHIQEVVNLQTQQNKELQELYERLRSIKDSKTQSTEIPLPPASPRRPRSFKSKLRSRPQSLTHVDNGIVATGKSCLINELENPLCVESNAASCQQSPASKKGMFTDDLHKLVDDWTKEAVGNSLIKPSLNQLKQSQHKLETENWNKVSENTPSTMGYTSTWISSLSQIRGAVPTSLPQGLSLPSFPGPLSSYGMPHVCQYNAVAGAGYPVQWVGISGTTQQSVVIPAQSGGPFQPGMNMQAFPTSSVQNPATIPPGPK

inhibition at 0.01 µM (BLK; [1]): < 30%
inhibition at 0.1 µM (BLK; inhibitor concentration 0.1 μM): > 50%
inhibition at 1 µM (BLK; inhibitor concentration 1 μM): > 50%
inhibition at 0.01 µM (DDR1; [1]): < 30%
inhibition at 0.1 µM (DDR1; inhibitor concentration 0.1 μM): > 50%
inhibition at 1 µM (DDR1; inhibitor concentration 1 μM): > 50%
inhibition at 1 µM (EPHA5): < 50%
inhibition at 1 µM (FGFR1): > 50%
inhibition at 1 µM (FLT1): > 50%
inhibition at 1 µM (FLT4): > 50%
inhibition at 0.01 µM (FYN(isoform b); [1]): < 30%
inhibition at 0.1 µM (FYN(isoform b); inhibitor concentration 0.1 μM): < 50%
inhibition at 1 µM (FYN(isoform b); inhibitor concentration 1 μM): > 50%
inhibition at 1 µM (KIT(D816E)): > 50%
inhibition at 1 µM (KIT(V654A)): > 50%
inhibition at 1 µM (MAP2K3): > 50%
inhibition at 1 µM (MAP2K6): < 50%
inhibition at 1 µM (MAP2K7): < 50%
inhibition at 0.01 µM (MST2; [1]): < 30%
inhibition at 0.1 µM (MST2; inhibitor concentration 0.1 μM): < 50%
inhibition at 1 µM (MST2; inhibitor concentration 1 μM): > 50%
inhibition at 1 µM (MST3): < 50%
inhibition at 1 µM (PKD3): < 50%
inhibition at 0.01 µM (RET(G691S); [1]): < 30%
inhibition at 0.1 µM (RET(G691S); inhibitor concentration 0.1 μM): < 50%
inhibition at 1 µM (RET(G691S); inhibitor concentration 1 μM): > 50%
inhibition at 1 µM (WNK3): > 50%
inhibition at 1 µM (p38β): > 50%
inhibition at 1 µM (skMLCK): > 50%
SMILES: O=C(c1c(F)ccc(NS(=O)(=O)CCCO)c1F)c1c[nH]c2ncc(-c3ccc(Cl)cc3)cc12 [200-17, N-[3-[5-(4-chlorophenyl)-1H-pyrrolo[2,3-b]pyridine-3-carbonyl]-2,4-difluorophenyl]-3-hydroxypropane-1-sulfonamide]
